We go through nine molecules from patent publication US9783511B2, “Carbamate benzoxazine propionic acids and acid derivatives for modulation of RORgamma activity and the treatment of disease” (Merck Sharp & Dohme Corp., priority 2013, dated 2017).

The target of the assay is human RORgammaT-Ligand Binding Domain (LBD) (Homo sapiens (Human), UniProt P51449). Put plainly: RORγ-Ligand Binding Domain TR-FRET Assay (co-activator peptide SRC1_2 recruitment). The format is biochemical. Conditions: HIS-tagged RORγ-LBD 3 nM, biotinylated SRC1 LXXLL peptide 100 nM, incubated overnight at 4° C., 665 nm/615 nm ratio. In short, it runs like this: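 E. coli-expressed, Ni2+-purified HIS-tagged human RORγ-LBD at 3 nM final in 50 mM Tris pH 7.0, 50 mM KCl, 1 mM EDTA, 0.1 mM DTT, 100 μg/mL delipidated BSA. TR-FRET read-out of SRC1_2 co-activator peptide recruitment; compounds dispensed acoustically.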
human RORgammaT-Ligand Binding Domain (LBD), sequence (P51449 269-508): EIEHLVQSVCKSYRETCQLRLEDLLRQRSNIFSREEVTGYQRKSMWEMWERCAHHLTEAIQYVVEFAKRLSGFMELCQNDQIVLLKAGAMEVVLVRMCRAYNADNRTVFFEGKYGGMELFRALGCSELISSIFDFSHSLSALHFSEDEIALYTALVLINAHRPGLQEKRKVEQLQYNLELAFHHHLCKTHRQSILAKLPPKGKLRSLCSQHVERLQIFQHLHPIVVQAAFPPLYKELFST

Turning to `CC(C)(OC(=O)Nc1ccc2c(c1)N(S(=O)(=O)c1cncc(Br)c1)C[C@H](CCC(=O)O)O2)C(F)(F)F` [Example 6BU, 3-[(2S)-4-[(5-bromopyridin-3-yl)sulfonyl]-6-{[(2,2,2-trifluoro-1,1-dimethylethoxy)carbonyl]amino}-3,4-dihydro-2H-1,4-benzoxazin-2-yl]propanoic acid], the IC50 was 10.9 nM.
As for `CC(C)(OC(=O)Nc1ccc2c(c1)N(S(=O)(=O)c1cncc(C3CC3)c1)C[C@H](CCC(=O)O)O2)C(F)(F)F` [Example 6BV, 3-[(2S)-4-[(5-cyclopropylpyridin-3-yl)sulfonyl]-6-{[(2,2,2-trifluoro-1,1-dimethylethoxy)carbonyl]amino}-3,4-dihydro-2H-1,4-benzoxazin-2-yl]propanoic acid], the IC50 stood at 8.84 nM.
As to `Cc1cncc(S(=O)(=O)N2C[C@H](CCC(=O)O)Oc3ccc(NC(=O)OC(C)(C)C(F)(F)F)cc32)c1` [Example 6BX, 3-[(2S)-4-[(5-methylpyridin-3-yl)sulfonyl]-6-{[(2,2,2-trifluoro-1,1-dimethylethoxy)carbonyl]amino}-3,4-dihydro-2H-1,4-benzoxazin-2-yl]propanoic acid], the IC50 came to 32.4 nM.
Then `COc1cncc(S(=O)(=O)N2C[C@H](CCC(=O)O)Oc3ccc(NC(=O)OC(C)(C)C(F)(F)F)cc32)c1` [Example 6BY, 3-[(2S)-4-[(5-methoxypyridin-3-yl)sulfonyl]-6-{[(2,2,2-trifluoro-1,1-dimethylethoxy)carbonyl]amino}-3,4-dihydro-2H-1,4-benzoxazin-2-yl]propanoic acid], with 27.1 nM; and `CCOc1sc(CC)nc1S(=O)(=O)N1C[C@H](CCC(=O)O)Oc2ccc(NC(=O)OC(C)(C)C(F)(F)F)cc21` [Example 6CC, 3-[(2S)-4-[(5-ethoxy-2-ethyl-1,3-thiazol-4-yl)sulfonyl]-6-{[(2,2,2-trifluoro-1,1-dimethylethoxy)carbonyl]amino}-3,4-dihydro-2H-1,4-benzoxazin-2-yl]propanoic acid], with 12.4 nM.
The figure for `CCOc1sc(C2CC2)nc1S(=O)(=O)N1C[C@H](CCC(=O)O)Oc2ccc(NC(=O)OC(C)(C)C(F)(F)F)cc21` [Example 6CD, 3-[(2S)-4-[(2-cyclopropyl-5-ethoxy-1,3-thiazol-4-yl)sulfonyl]-6-{[(2,2,2-trifluoro-1,1-dimethylethoxy)carbonyl]amino}-3,4-dihydro-2H-1,4-benzoxazin-2-yl]propanoic acid] is 14.4 nM.
Take `CCOc1sc(C(F)(F)F)nc1S(=O)(=O)N1C[C@H](CCC(=O)O)Oc2ccc(NC(=O)OC(C)(C)C(F)(F)F)cc21` [Example 6CE, 3-[(2S)-4-{[5-ethoxy-2-(trifluoromethyl)-1,3-thiazol-4-yl]sulfonyl}-6-{[(2,2,2-trifluoro-1,1-dimethylethoxy)carbonyl]amino}-3,4-dihydro-2H-1,4-benzoxazin-2-yl]propanoic acid]: the IC50 came to 67.5 nM.
Take `CCc1nc(S(=O)(=O)N2C[C@H](CCC(=O)O)Oc3ccc(NC(=O)OC(C)(C)C(F)(F)F)cc32)c(OC(C)C)s1` [Example 6CF, 3-[(2S)-4-{[2-ethyl-5-(1-methylethoxy)-1,3-thiazol-4-yl]sulfonyl}-6-{[(2,2,2-trifluoro-1,1-dimethylethoxy)carbonyl]amino}-3,4-dihydro-2H-1,4-benzoxazin-2-yl]propanoic acid]: the 50% inhibitory concentration (IC50) was 20 nM.
`CCc1nc(S(=O)(=O)N2C[C@H](CCC(=O)O)Oc3ccc(NC(=O)OC(C)(C)C(F)(F)F)cc32)c(OCC(F)(F)F)s1` [Example 6CG, 3-[(2S)-4-{[2-ethyl-5-(2,2,2-trifluoroethoxy)-1,3-thiazol-4-yl]sulfonyl}-6-{[(2,2,2-trifluoro-1,1-dimethylethoxy)carbonyl]amino}-3,4-dihydro-2H-1,4-benzoxazin-2-yl]propanoic acid]: the IC50 amounted to 22.9 nM.
